According to US4588713A, “Selective biologically active 7-oxo-prostacyclin derivatives and pharmaceutical compositions containing same” (Chinoin Gyogyszer Vegyeszeti Termekek Gyara Rt., priority 1984, dated 1986):
Values after ≈ are worked out from the molar mass of the structure shown. “Also recorded” adds a separate entry of the source. Counter-ions that a name gives are not always drawn.

Columns and labels:
[1] = system: anaesthetized cat with an open-chest; assay: Hypotensive (haemodynamic, blood pressure reducing) activity, i.v. bolus, anaesthetized open-chest cat; type: in vivo; details: for ED50: Felis catus, iv; for relative efficiency H^2 (hypotensive): relative to PGI2-Na = 1
Protocol: (§1) The selective biological activity of these compounds may be studied by investigating the antiaggregation and hypotensive activity simultaneously. Anti-aggregation activity was measured in vitro according to Born Nature, 214, 927 (1962) on human plasma enriched with thrombocytes in an aggregation induced by […] ADP, whereas the haemodynamic activity was obtained from the blood pressure reducing activity of the compound administered in an i.v. bolus injection to an anaesthetized cat with an open-chest.

[2] = system: antiaggregation and hypotensive activity; assay: Selectivity: antiaggregation versus hypotensive activity; details: for H^1 /H^2: relative anti-aggregation efficiency / relative hypotensive efficiency
Protocol: as §1

[3] = system: human plasma enriched with thrombocytes; assay: Anti-aggregation activity in vitro (Born), ADP-induced aggregation; type: cell-based; details: for relative efficiency H^1 (anti-aggregation): relative to PGI2-Na = 1
Protocol: as §1

[4] = background; cited from earlier work
[5] = i.v. bolus, anaesthetized open-chest cat
[6] = in vitro, human plasma enriched with thrombocytes, 2 μm ADP

| Compound | ED50 [1, 5] [µg/kg] | relative efficiency H^2 (hypotensive) [1] | H^1 /H^2 [2] | IC50 [3, 6] [ng/mL] | relative efficiency H^1 (anti-aggregation) [3] | chemical and biological stability (in words) [4] | hypotensive activity ED50 [1, 5] [µg/kg] | selectivity compared with prostacycline and 7-oxo-PGI2 sodium salt (in words) ([2]; from H^1/H^2, listed as cyclopentyl analog) | anti-aggregation IC50 [3, 6] [ng/mL] |
| --- | --- | --- | --- | --- | --- | --- | --- | --- | --- |
| CCCCC[C@H](O)/C=C/[C@@H]1[C@H]2C(=O)/C(=C/CCCC(=O)O)O[C@H]2C[C@H]1O [7-oxo-PGI2 --Na, sodium salt of 7-oxo-PGI2] | 6.5 | 0.024 | 2.75 | 15 | 0.086 | – | – | – | – |
| CCCCC[C@H](O)/C=C/[C@@H]1[C@H]2C/C(=C/CCCC(=O)O)O[C@H]2C[C@H]1O [PGI2 --Na] | 0.16 | 1 | 1 | 1 (≈ 2.84 nM) | – | – | – | – | – |
| CCCCC[C@H](O)/C=C/[C@@H]1[C@H]2C/C(=C/CCCC(=O)O)O[C@H]2C[C@H]1O [PGI2, Prostacyclin] | – | – | – | – | – | chemical and biological instability | – | – | – |
| O=C([O-])CCCC=C1OC2CC(O)C(C=CC(O)C3CCCC3)C2C1=O.[Na+] (stereo not shown) [Sodium salt of 7-oxo-16,17,18,19,20-pentanor-15-cyclopentyl-PGI2] | – | 0.0075 | 83.1 | – | 0.625 | – | 21.2 | about hundred times more selective than prostacycline; also recorded: considerably more selective than the sodium salt of 7-oxo-PGI2 | 1.6 |
